From US20210330611A1, “THERAPY FOR NEUROLOGICAL DISEASES/DISORDERS” (priority 2020, published 2021)
Counter-ions that a name gives are not always drawn. Like-named read-outs stand apart in the source and are kept apart here.

Legend:
primary rat microglia [1] = tested on: primary rat microglia;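 for Fibrin % cell toxicity: share of dead cells sized under 150 µm2 at 10 µM in fibrin-stimulated microglia HTS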
primary rat microglia [2] = tested on: primary rat microglia; remark: listed apart in the source;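 for Fibrin % cell toxicity: share of dead cells sized under 150 µm2 at 10 µM in fibrin-stimulated microglia HTS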
[3] = tested on: fibrin- and LPS-induced microglia activation; assay: cells; format: cell-based, rat
[4] = tested on: LPS-induced microglia activation; assay: Image-based assay of LPS-induced microglia activation (HTS and dose response); format: cell-based, rat
[5] = tested on: fibrin-induced microglia activation; assay: Image-based assay of fibrin-induced microglia activation (HTS and dose response); format: cell-based, rat; details: for inhibition at 10 µM: Rattus norvegicus, Microglia, read-out: Fibrin % inhibition
[6] = classification by fibrin and LPS inhibition in HTS
[7] = Rattus norvegicus, Microglia, 48 h; read-out: LPS % inhibition
[8] = primary microglia HTS, fibrin stimulation, cell size >800 μm2 as marker of activation
[9] = HTS of 1907 compounds, quadrant by fibrin and LPS inhibition
[10] = Rattus norvegicus, Microglia, primary microglia HTS, 10 μM, LPS-stimulated, cell size >800 μm^2 as marker of activation; read-out: LPS % inhibition
[11] = primary microglia HTS, 10 μM, fibrin-stimulated, cell size >800 μm^2 as marker of activation
[12] = Rattus norvegicus, Microglia, read-out: LPS % inhibition

Row | Compound | LPS % cell toxicity (primary rat microglia [1]; rat) [%] | Fibrin % cell toxicity (primary rat microglia [2]; rat) [%] | Quadrant (FIG. 5b) [3, 6] | inhibition at 10 µM [4, 7] [%] | inhibition at 10 µM [5, 8] [%] | other results
1 | CO[C@H]1/C=C/O[C@@]2(C)Oc3c(C)c(O)c4c(O)c(c(/C=N/N5CCN(C)CC5)c(O)c4c3C2=O)NC(=O)/C(C)=C\C=C\[C@H](C)[C@H](O)[C@@H](C)[C@@H](O)[C@@H](C)[C@H](OC(C)=O)[C@@H]1C [Rifampicin] | 0 | 1 | – | – | – | Quadrant (FIG. 5b) [3]: Q4; LPS % inhibition [4]: 7%; Fibrin % inhibition [5]: −21%
2 | CO[C@H]1/C=C/O[C@@]2(C)Oc3c(C)c(O)c4c(O)c(c(/C=N/N5CCN(C)CC5)c(O)c4c3C2=O)NC(=O)/C(C)=C\C=C\[C@H](C)[C@H](O)[C@@H](C)[C@@H](O)[C@@H](C)[C@H](OC(C)=O)[C@@H]1C [Rifampin] | 0 | 1 | – | – | – | Quadrant (FIG. 5b) [3]: Q4; LPS % inhibition [4]: 20%; Fibrin % inhibition [5]: 8%
3 | CC(C)c1nc(CN(C)C(=O)N[C@H](C(=O)N[C@@H](Cc2ccccc2)C[C@H](O)[C@H](Cc2ccccc2)NC(=O)OCc2cncs2)C(C)C)cs1 [Ritonavir] | 0 | 0 | Q4 | 11 | -8 | –
4 | CCCN1CCCC[C@H]1C(=O)Nc1c(C)cccc1C [Ropivacaine, Ropivacaine Hydrochloride] | – | – | Q4 | – | – | LPS % cell toxicity (primary rat microglia [1]): 0%; Fibrin % cell toxicity (primary rat microglia [2]): 1%; LPS % inhibition [4]: 5%; Fibrin % inhibition [5, 8]: 18%
5 | CN(CCOc1ccc(CC2SC(=O)NC2=O)cc1)c1ccccn1 (stereo not drawn) [Rosiglitazone, Rosiglitazone Maleate] | – | – | – | – | – | LPS % cell toxicity (primary rat microglia [1]): 1%; Fibrin % cell toxicity (primary rat microglia [2]): 1%; Quadrant (FIG. 5b) [3]: Q4; LPS % inhibition [4]: 20%; Fibrin % inhibition [5]: 5%
6 | O=C1NS(=O)(=O)c2ccccc21 [Saccharin] | 0 | 0 | – | – | – | Quadrant (FIG. 5b) [3]: Q4; inhibition at 10 µM ([4]; Rattus norvegicus, Microglia, 48 h, read-out: LPS % inhibition): 11%; inhibition at 10 µM [5]: -8%
7 | CC(C)(C)NCC(O)c1ccc(O)c(CO)c1 (stereo not drawn) [Salbutamol] | 0 | 1 | Q4 | 25 | 25 | –
8 | NC(=O)c1ccccc1O [Salicylamide] | 1 | 1 | Q4 | 16 | -20 | –
9 | CC1CCC(NC(=O)N(CCCl)N=O)CC1 (stereo not drawn) [Semustine] | 0 | 1 | Q4 | 18 | -7 | –
10 | CC(C)CC(N(C)C)C1(c2ccc(Cl)cc2)CCC1 (stereo not drawn) [Sibutramine] | 0 | 1 | Q4 | – | -12 | inhibition at 10 µM ([4]; Rattus norvegicus, Microglia, 48 h, primary microglia HTS, LPS stimulation, cell size >800 μm2 as marker of activation; read-out: LPS % inhibition): 8%
11 | CO[C@H]1C[C@@H]2CC[C@@H](C)[C@@](O)(O2)C(=O)C(=O)N2CCCC[C@H]2C(=O)O[C@H]([C@H](C)C[C@@H]2CC[C@@H](O)[C@H](OC)C2)CC(=O)[C@H](C)/C=C(\C)[C@@H](O)[C@@H](OC)C(=O)[C@H](C)C[C@H](C)/C=C/C=C/C=C/1C [Sirolimus] | 1 | 4 | – | – | – | Quadrant (FIG. 5b) ([3]; quadrant by fibrin and LPS inhibition, HTS at 10 μM): Q2; inhibition at 10 µM ([4]; Rattus norvegicus, Microglia, primary microglia HTS, LPS stimulation, compounds at 10 μM; read-out: LPS % inhibition): 81%; inhibition at 10 µM ([5]; primary microglia HTS, fibrin stimulation, compounds at 10 μM): 108%
12 | O=C([O-])[C@H](O)[C@@H](O)[C@H](O)[C@H](O)CO.[Na+] [Sodium Gluconate] | 0 | 1 | Q4 | 11 | 1 | –
13 | CNC(=O)c1cc(Oc2ccc(NC(=O)Nc3ccc(Cl)c(C(F)(F)F)c3)cc2)ccn1 [Sorafenib] | 1 | 1 | Q4 | 35 | -67 | –
14 | CC(C)NCC(O)c1ccc(NS(C)(=O)=O)cc1 (stereo not drawn) [Sotalol] | 0 | 1 | Q4 | 6 | 6 | –
15 | [H]/N=C(/N)N[C@H]1[C@H](O)[C@@H](O)[C@H](O[C@@H]2O[C@@H](C)[C@](O)(C=O)[C@H]2O[C@@H]2O[C@@H](CO)[C@H](O)[C@@H](O)[C@@H]2NC)[C@@H](N/C(N)=N\[H])[C@@H]1O [Streptomycin Sulfate] | 0 | 0 | – | – | – | Quadrant (FIG. 5b) [3, 9]: Q4; inhibition at 10 µM [4, 10]: 13%; inhibition at 10 µM [5, 11]: -46%
16 | O=C1C[C@@H]2OCC=C3CN4CC[C@]56c7ccccc7N1[C@H]5[C@H]2[C@H]3C[C@H]46 [Strychnine] | 0 | 1 | – | – | – | Quadrant (FIG. 5b) [3]: Q4; inhibition at 10 µM [4, 12]: 18%; inhibition at 10 µM [5]: 1%
17 | Nc1ccc(S(=O)(=O)Nc2ncccn2)cc1 [Sulfadiazine] | 0 | 0 | – | – | – | Quadrant (FIG. 5b) [3]: Q4; inhibition at 10 µM [4, 12]: 13%; inhibition at 10 µM [5]: -19%
18 | Cc1cc(C)nc(NS(=O)(=O)c2ccc(N)cc2)n1 [Sulfamethazine] | 0 | 0 | – | – | – | Quadrant (FIG. 5b) [3, 9]: Q4; inhibition at 10 µM [4, 10]: 14%; inhibition at 10 µM [5, 11]: -9%
19 | Nc1ccc(S(=O)(=O)Nc2ccccn2)cc1 [Sulfapyridine] | 0 | 1 | – | – | – | Quadrant (FIG. 5b) [3, 9]: Q4; inhibition at 10 µM [4, 10]: 20%; inhibition at 10 µM [5, 11]: -37%
20 | O=C(O)c1cc(/N=N/c2ccc(S(=O)(=O)Nc3ccccn3)cc2)ccc1O [Sulfasalazine] | 0 | 0 | – | – | – | Quadrant (FIG. 5b) [3, 9]: Q4; inhibition at 10 µM [4, 10]: 13%; inhibition at 10 µM [5, 11]: -29%
21 | Nc1ccc(S(=O)(=O)Nc2nccs2)cc1 [Sulfathiazole] | 0 | 0 | – | – | – | Quadrant (FIG. 5b) [3, 9]: Q4; inhibition at 10 µM [4, 10]: 9%; inhibition at 10 µM [5, 11]: -17%
